# From patent US5078986A, “Method for enhancing magnetic resonance imaging using an image altering agent containing an excess of chelating agent” (Mallinckrodt Medical, Inc., priority 1990, dated 1992)
# Entries after “also recorded” stand apart in the source; their conditions may differ. Read-outs that look alike come from different tables or passages of the source.
# Legend:
# [1] = Biodistribution of 54Mn radioactivity in rats (Example 5); assay type: in vivo, Sprague-Dawley rat
# Excerpt: A total of forty Sprague-Dawley rats (20 male, 217-295 g; 20 female, 151-208 g; Charles River) were used. Drinking water was provided ad libitum. The animals, 2 males and 2 females per group, were selected randomly from their cages and were identified with indelible ink numbers at tail bases before test substance administration.
# Rats were divided into 10 groups consisting of 2 male and 2 female rats per group. […] Immediately after dosing, rats were housed in individual metabolism cages. Ground Purina Laboratory Chow and water were supplied ad libitum to animals sacrificed at 24 and 48 hr after treatment. Rats from both ^54 NmNa2 EDTA and ^54 Mn-L treatment groups were sacrificed by cervical dislocation at 0.5, 2, 4, 24 and 48 hr after treatment, and the following samples were obtained: injection site, blood, liver, lung, spleen, heart, kidneys, salivary gland (submaxillary), brain, bone with marrow, muscle and fat. Urine samples were obtained from animals sacrificed at all intervals of 2 hr or more after injection and fecal samples were obtained from animals sacrificed at 24 and 48 hr after treatment. […] The entire organ weights were determined for the remaining tissues.
# Levels of radioactivity in the biological specimens and aliquots of the injected test substances were determined using a gamma scintillation spectrometer (Model 1085, Nuclear Chicago Corp., Des Plaines, Ill.). Results were calculated on a percent dose/organ (or fluid) and a percent dose/g (or ml) basis using an HP-85 desk top computer (Hewlett Packard, Fort Collins, Colo.).
# Kinetic data for the elimination of radioactivity from liver, spleen, kidneys, heart and bone with marrow were curve fitted by the peeling and least-square methods, to mono or bi-exponential equations: [formula] Where Ct=% dose/organ in tissue at time t.
# Ai=Concentration at time 0 of the line described by each first order term.
# Ki=Elimination rate constant for each first-order term.
# The half-life (t 1/2) for each elimination phase was calculated as 0.693/Ki. The square of the correlation coefficient (r^2) for each elimination phase was calculated as an indication of variability.
# [2] = system: isolated perfused rabbit heart
# mice = assay: Acute intravenous toxicity in mice (Example 4); conditions: i.v.; for Average Change in Body Wt. of Survivors: 7 days; for LD50: 7-day observation
# Protocol: In addition, the cardiotoxic effects of single bolus intracoronary arterial injections of 4, 8, 16 or 32 mg MnCl2 were evaluated in the isolated perfused rabbit heart (IPRH).
# The aqueous vehicle for the suspension of negatively charged liposomes consisted of 0.9% NaCl buffered with 0.003M sodium phosphate, pH 7.4. The lipid concentration was 50 μmol/ml.
# A total of 60 mice, 30 males (body weight range of 20-33.5 g) and 30 females (body weight range of 19.1-29.7 g) were used. Fifty of the mice were Swiss ICR, CD-1, obtained from Charles River and ten were Swiss CF-1 obtained from Sasco (Omaha, Nebr.).
# The four test substances were administered via the lateral tail vein of the mouse at a rate of 1 ml/min with the following doses given.
# [3] = 32 mg, 0-15 S, only 1 heart, all others had VF
smiles,measurement,setting,value
O=C([O-])CN(CCN(CC(=O)[O-])CC(=O)[O-])CC(=O)[O-].[54Mn+2].[Na+].[Na+] [^54 MnNa2 EDTA],Radioactivity in fat (in words),"[1]; 2 of 4 rats at 0.5, 2 and 4 hr",Unusually high levels of radioactivity
same,Localization of remaining radioactivity,[1]; after 48 hr,primarily localized in the bone and marrow
same,Urinary excretion at later time intervals,[1]; after the initial 2 hr,no additional urinary excretion of radioactivity was observed
same,Blood clearance at 2 hr (in words),[1]; by 2 hr after treatment,almost completely cleared from the blood
same,Blood clearance (in words),"[1]; rat, i.v.",rapidly cleared from the blood
same,Bone and marrow half-life,"[1]; rat, i.v.",> 100 h
same,"Distribution, percent dose/organ (in words)","[1]; rat, i.v.","distributed primarily to the liver, bone with marrow, muscle and kidneys"
same,Fraction associated with rapid first phase hepatic elimination,"[1]; rat, i.v.",Approximately 92%
same,Fraction associated with rapid first phase renal elimination,"[1]; rat, i.v.",Approximately 81%
same,"Heart half-life, monophasic elimination","[1]; rat, i.v.",approximately 8 hr
same,"Hepatic t 1/2, initial rapid elimination","[1]; rat, i.v.",< 1 h
same,"Hepatic t 1/2, secondary slow elimination phase","[1]; rat, i.v.",> 17 h
same,"Renal t 1/2, initial rapid elimination","[1]; rat, i.v.",< 1 h
same,"Renal t 1/2, secondary slow elimination phase","[1]; rat, i.v.",> 17 h
same,"Spleen half-life, monophasic elimination","[1]; rat, i.v.",~ 2 hr
same,Dose eliminated in the urine,[1]; within 2 hr after treatment,> 50 % of the dose
same,Total dose excreted in the feces,[1]; within 48 hr after treatment,31%
"[Cl][Mn][Cl] [MnCl2, manganese(II)chloride]",Incidence of Ventricular Fibrillation (VF),[2]; 4 mg,0/6
same,Mean % Change in Contractile Force (CF),"[2]; 4 mg, 0-15 S",-5%
same,Mean % Change in Heart Rate (HR),"[2]; 4 mg, 0-15 S",-2%
same,Mean % Change in Contractile Force (CF),"[2]; 4 mg, 15-30 S",-28%
same,Mean % Change in Heart Rate (HR),"[2]; 4 mg, 15-30 S",-2%
same,Mean % Change in Contractile Force (CF),"[2]; 4 mg, 1 min",-12%
same,Mean % Change in Heart Rate (HR),"[2]; 4 mg, 1 min",-4%
same,Mean % Change in Contractile Force (CF),"[2]; 4 mg, 2 min",+5%
same,Mean % Change in Heart Rate (HR),"[2]; 4 mg, 2 min",-2%
same,Incidence of Ventricular Fibrillation (VF),[2]; 8 mg,0/6
same,Mean % Change in Contractile Force (CF),"[2]; 8 mg, 0-15 S",-74%
same,Mean % Change in Heart Rate (HR),"[2]; 8 mg, 0-15 S",-8%
same,Mean % Change in Contractile Force (CF),"[2]; 8 mg, 15-30 S",-38%
same,Mean % Change in Heart Rate (HR),"[2]; 8 mg, 15-30 S",-7%
same,Mean % Change in Contractile Force (CF),"[2]; 8 mg, 1 min",-17%
same,Mean % Change in Heart Rate (HR),"[2]; 8 mg, 1 min",-7%
same,Mean % Change in Contractile Force (CF),"[2]; 8 mg, 2 min",+2%
same,Mean % Change in Heart Rate (HR),"[2]; 8 mg, 2 min",-6%
same,Incidence of Ventricular Fibrillation (VF),[2]; 16 mg,2/6
same,Mean % Change in Contractile Force (CF),"[2]; 16 mg, 0-15 S",-92%
same,Mean % Change in Heart Rate (HR),"[2]; 16 mg, 0-15 S",-31%
same,Mean % Change in Contractile Force (CF),"[2]; 16 mg, 15-30 S",-61%
same,Mean % Change in Heart Rate (HR),"[2]; 16 mg, 15-30 S",-14%
same,Mean % Change in Contractile Force (CF),"[2]; 16 mg, 1 min",-37%
same,Mean % Change in Heart Rate (HR),"[2]; 16 mg, 1 min",-14%
same,Mean % Change in Contractile Force (CF),"[2]; 16 mg, 2 min",-1%
same,Mean % Change in Heart Rate (HR),"[2]; 16 mg, 2 min",-11%
same,Premature ventricular contractions,"[2]; 16 mg, hearts which did not fibrillate",two of the four hearts which did not fibrillate had premature ventricular contractions
same,Incidence of Ventricular Fibrillation (VF),[2]; 32 mg,5/6
same,Mean % Change in Contractile Force (CF),[2]; [3],-100%
same,Mean % Change in Heart Rate (HR),[2]; [3],-100%
same,Mean % Change in Contractile Force (CF),"[2]; 32 mg, 15-30 S",-64%
same,Mean % Change in Heart Rate (HR),"[2]; 32 mg, 15-30 S",-17%
same,Mean % Change in Contractile Force (CF),"[2]; 32 mg, 1 min",-33%
same,Mean % Change in Heart Rate (HR),"[2]; 32 mg, 1 min",-17%
same,Mean % Change in Contractile Force (CF),"[2]; 32 mg, 2 min",+2%
same,Mean % Change in Heart Rate (HR),"[2]; 32 mg, 2 min",-14%
same,A-V conduction block,"[2]; 32 mg, the single heart which failed to fibrillate",complete A-V conduction block with ventricular standstill
same,Incidence of arrhythmias (in words),[2]; 4-32 mg intracoronary,dose-related incidence of arrhythmias
same,Period of maximal CF and HR effects after injection,[2]; 4-32 mg intracoronary,0 to 15 s
same,Arrhythmias at the lower two doses,[2]; 4 and 8 mg,No arrhythmias were observed
same,Time to return to control or stabilization at new baseline,[2]; CF and HR,two
same,PR and QRS intervals,[2]; ECG,dose-related increases in PR and QRS intervals
same,Reversion of VF,[2]; exception: a 32 mg dose,did revert spontaneously to normal sinus rhythm in each instance but one
same,Cumulative 7-Day Mortalities/Number Dosed,"mice; female, 25 mg/kg",1/5
same,Average Change in Body Wt. of Survivors,"mice; female, 25 mg/kg",2.7 g
same,Cumulative 7-Day Mortalities/Number Dosed,"mice; female, 31.25 mg/kg",4/5
same,Average Change in Body Wt. of Survivors,"mice; female, 31.25 mg/kg",3.5 g
same,Cumulative 7-Day Mortalities/Number Dosed,"mice; female, 37.5 mg/kg",4/5
same,Average Change in Body Wt. of Survivors,"mice; female, 37.5 mg/kg",3.6 g
same,Acute intravenous toxicity (in words),mice,high degree of acute toxicity
same,Cause of death,mice,cardiac arrest the probable cause of death
same,Convulsions,mice,"Transient convulsions, of moderate severity; also recorded: convulsions the primary pharmacotoxic sign"
same,Time of the one delayed death after dosing,mice,4 days
same,LD50,mice; 10080 min,28 mg/kg
same,LD50,"mice; listed as 1, 10080 min",28.0 mg/kg
same,LD50 expressed as Mn(II),"mice; mmol/kg of Mn(II), 10080 min",0.22 mmol/kg
same,Cumulative 7-Day Mortalities/Number Dosed,"mice; male, 25 mg/kg",3/5
same,Average Change in Body Wt. of Survivors,"mice; male, 25 mg/kg",1.2 g
same,Cumulative 7-Day Mortalities/Number Dosed,"mice; male, 31.25 mg/kg",2/5
same,Average Change in Body Wt. of Survivors,"mice; male, 31.25 mg/kg",4.6 g
same,Cumulative 7-Day Mortalities/Number Dosed,"mice; male, 37.5 mg/kg",4/5
same,Average Change in Body Wt. of Survivors,"mice; male, 37.5 mg/kg",3.4 g
